The structures appear in SMILES notation.

This test has as its target T1, Recombinant full length human OGA enzyme (Homo sapiens, UniProt O60502).
T1 construct: Recombinant full length human OGA enzyme was purchased from Origene; purchased Origene
T1 sequence (O60502 1-916): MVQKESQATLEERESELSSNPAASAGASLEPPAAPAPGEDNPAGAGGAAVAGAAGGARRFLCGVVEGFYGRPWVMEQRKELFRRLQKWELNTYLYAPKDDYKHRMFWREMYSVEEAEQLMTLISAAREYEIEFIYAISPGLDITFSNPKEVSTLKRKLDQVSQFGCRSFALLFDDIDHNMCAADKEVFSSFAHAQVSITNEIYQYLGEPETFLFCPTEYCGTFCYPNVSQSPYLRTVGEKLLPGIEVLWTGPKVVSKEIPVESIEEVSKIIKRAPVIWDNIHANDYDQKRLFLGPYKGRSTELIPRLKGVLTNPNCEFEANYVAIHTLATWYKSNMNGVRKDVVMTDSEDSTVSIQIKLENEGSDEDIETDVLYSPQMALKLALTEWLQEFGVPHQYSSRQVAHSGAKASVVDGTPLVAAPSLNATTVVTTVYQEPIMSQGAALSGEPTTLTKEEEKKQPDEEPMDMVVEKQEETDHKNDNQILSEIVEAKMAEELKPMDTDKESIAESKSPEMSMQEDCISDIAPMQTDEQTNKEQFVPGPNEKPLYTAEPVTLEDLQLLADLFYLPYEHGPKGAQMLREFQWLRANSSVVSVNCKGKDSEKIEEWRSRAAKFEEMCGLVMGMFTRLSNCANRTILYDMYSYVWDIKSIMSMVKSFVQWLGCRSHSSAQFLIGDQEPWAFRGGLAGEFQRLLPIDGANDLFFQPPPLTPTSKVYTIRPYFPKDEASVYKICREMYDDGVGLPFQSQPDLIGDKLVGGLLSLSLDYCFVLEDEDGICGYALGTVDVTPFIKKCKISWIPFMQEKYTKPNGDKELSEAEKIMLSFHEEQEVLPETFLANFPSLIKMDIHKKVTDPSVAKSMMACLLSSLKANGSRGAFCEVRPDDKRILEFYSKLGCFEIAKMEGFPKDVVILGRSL
As to the kind of experiment: OGA enzyme inhibition biochemical assay. Conditions: 1 nM OGA, 100 μM 4-MUGlcNAc (Km), pH 6.4, 90 minutes at room temperature, 10-point dose-response from 20 μM. The protocol: N-(5-(((2S,4R)-4-([1,2,4]triazolo[4,3-a]pyrazin-3-yloxy)-2-methylpyrrolidin-1-yl)methyl)-4-fluorothiazol-2-yl)acetamide: The title compound was prepared in an analogous manner as Example 172 from 3-bromo-[1,2,4]triazolo[4,3-a]pyrazine. LCMS (ESI): [M+H] 392. ^1H NMR (600 MHz, CHLOROFORM-d) δ 10.75 (br s, 1H), 9.04 (s, 1H), 9.03 (s, 1H), 7.24 (s, 1H), 4.99-5.06 (m, 1H), 4.01 (d, J=14.49 Hz, 1H), 3.64 (d, J=14.67 Hz, 1H), 3.40 (d, J=11.55 Hz, 1H), 2.75 (dd, J=5.78, 11.46 Hz, 1H), 2.61-2.72 (m, 2H), 2.32 (s, 4H), 1.84-1.92 (m, 1H), 1.30 (d, J=5.87 Hz, 4H). ^19F NMR (565 MHz, CHLOROFORM-d) 6-115.92 (br s, 1F). OGA Enzyme Inhibition Biochemical Assay
Recombinant full length human OGA enzyme was purchased from Origene. 4-MUGlCNAc substrate was purchased from Sigma. All other reagents were purchased from Sigma or Fisher. Assay buffer consists of the McIlvaine buffer system, pH 6.4 (0.2M Na2HPO4 mixed with 0.1M citric acid) and 0.01% BSA. Reactions consist of 1 nM OGA, 100 μM 4-MUGlcNAc (Km), and compound in a final volume of 10 μl. Reactions were incubated for 90 minutes at room temperature and quenched with 40 μl of 3M glycine, pH 10 and read on a Perkin Elmer Envision plate reader (Ex: 355 nm/Em: 460 nm). Compounds were tested with a 10-point dose-response starting from 20 μM with a 4-fold dilution. Data, as presented in Table 1 below, was fit using GraphPad Prism using a 4-parameter fit with variable slope.
As for `CC(=O)Nc1nc(F)c(CN2C[C@H](Oc3ccc4nn(C)cc4c3)C[C@@H]2C)s1` [Example 50, N-(4-fluoro-5-(((2S,4R)-2-methyl-4-((2-methyl-2H-indazol-5-yl)oxy)pyrrolidin-1-yl)methyl)thiazol-2-yl)acetamide], the IC50 was under 1 nM.
Consider `CC(=O)Nc1nc(F)c(CN2C[C@H](Oc3ccc4cnccc4n3)C[C@@H]2C)s1` [Example 120, N-(5-(((2S,4R)-4-((1,6-naphthyridin-2-yl)oxy)-2-methylpyrrolidin-1-yl)methyl)-4-fluorothiazol-2-yl)acetamide], for which the IC50 was under 1 nM.
`COc1cccn2nc(O[C@@H]3C[C@H](C)N(Cc4sc(NC(C)=O)nc4F)C3)nc12` [Example 148, N-(4-fluoro-5-(((2S,4R)-4-((8-methoxy-[1,2,4]triazolo[1,5-a]pyridin-2-yl)oxy)-2-methylpyrrolidin-1-yl)methyl)thiazol-2-yl)acetamide]: the IC50 is under 1 nM.
Turning to `CC(=O)Nc1nc(F)c(CN2C[C@H](Oc3ncc4cnn(C)c4n3)C[C@@H]2C)s1` [Example 142, N-(4-fluoro-5-(((2S,4R)-2-methyl-4-((1-methyl-1H-pyrazolo[3,4-d]pyrimidin-6-yl)oxy)pyrrolidin-1-yl)methyl)thiazol-2-yl)acetamide], the IC50 was under 1 nM.
`CC(=O)Nc1ncc(CN2C[C@H](Oc3ccnc4ccccc34)C[C@@H]2C)s1` [Example 19, N-(5-(((2S,4R)-2-methyl-4-(quinolin-4-yloxy)pyrrolidin-1-yl)methyl)thiazol-2-yl)acetamide]: the IC50 stood at 1.3 nM.
As for `CC(=O)Nc1ncc(CN2C[C@H](Oc3ccc4cc(C(N)=O)ccc4n3)C[C@@H]2C)s1` [Example 2, 2-(((3R,5S)-1-((2-acetamidothiazol-5-yl)methyl)-5-methylpyrrolidin-3-yl)oxy)quinoline-6-carboxamide], the IC50 is under 1 nM.
As to `CC(=O)Nc1nc(F)c(CN2C[C@H](Oc3ccnc4ccnn34)C[C@@H]2C)s1` [Example 104, N-(4-fluoro-5-(((2S,4R)-2-methyl-4-(pyrazolo[1,5-a]pyrimidin-7-yloxy)pyrrolidin-1-yl)methyl)thiazol-2-yl)acetamide], the IC50 turned out to be 3.8 nM.
With `COc1ccc2ccc(O[C@@H]3C[C@H](C)N(Cc4sc(NC(C)=O)nc4F)C3)nc2n1` [Example 167, N-(4-fluoro-5-(((2S,4R)-4-((7-methoxy-1,8-naphthyridin-2-yl)oxy)-2-methylpyrrolidin-1-yl)methyl)thiazol-2-yl)acetamide] the figure was under 1 nM; with `CC(=O)Nc1ncc(CN2C[C@H](Oc3cccc4cn(C)nc34)C[C@@H]2C)s1` [Example 159, N-(5-(((2S,4R)-2-methyl-4-((2-methyl-2H-indazol-7-yl)oxy)pyrrolidin-1-yl)methyl)thiazol-2-yl)acetamide], under 1 nM; with `COc1cnc2c(O[C@@H]3C[C@H](C)N(Cc4sc(NC(C)=O)nc4F)C3)cnn2c1` [Example 121, N-(4-fluoro-5-(((2S,4R)-4-((6-methoxypyrazolo[1,5-a]pyrimidin-3-yl)oxy)-2-methylpyrrolidin-1-yl)methyl)thiazol-2-yl)acetamide], under 1 nM.
`CC(=O)Nc1ncc(CN2C[C@H](Oc3nn4c(C(F)(F)F)nnc4c(C)c3C)C[C@@H]2C)s1` [Example 20, N-(5-(((2S,4R)-4-((7,8-dimethyl-3-(trifluoromethyl)-[1,2,4]triazolo[4,3-b]pyridazin-6-yl)oxy)-2-methylpyrrolidin-1-yl)methyl)thiazol-2-yl)acetamide]: the IC50 worked out at 1.6 nM.
As to `CC(=O)Nc1ncc(CN2C[C@H](Oc3nc4ccccc4cc3C)C[C@@H]2C)s1` [Example 29, N-(5-(((2S,4R)-2-methyl-4-((3-methylquinolin-2-yl)oxy)pyrrolidin-1-yl)methyl)thiazol-2-yl)acetamide], the IC50 came to 5.5 nM.
As for `CC(=O)Nc1ncc(CN2C[C@H](Oc3ccc4ccnn4c3)C[C@@H]2C)s1` [Example 155, N-(5-(((2S,4R)-2-methyl-4-(pyrazolo[1,5-a]pyridin-6-yloxy)pyrrolidin-1-yl)methyl)thiazol-2-yl)acetamide], the figure is under 1 nM; as for `COc1ccc2ccc(O[C@@H]3C[C@H](C)N(Cc4cnc(NC(C)=O)s4)C3)nc2c1` [Example 79, N-(5-(((2S,4R)-4-((7-methoxyquinolin-2-yl)oxy)-2-methylpyrrolidin-1-yl)methyl)thiazol-2-yl)acetamide], under 1 nM.
With `CC(=O)Nc1nc(F)c(CN2C[C@H](Oc3ccn4ccnc4c3)C[C@@H]2C)s1` [Example 43, N-(4-fluoro-5-(((2S,4R)-4-(imidazo[1,2-a]pyridin-7-yloxy)-2-methylpyrrolidin-1-yl)methyl)thiazol-2-yl)acetamide] the figure was under 1 nM; with `COc1cc2ccnc(Cl)c2cc1O[C@@H]1C[C@H](C)N(Cc2sc(NC(C)=O)nc2F)C1` [Example 132, N-(5-(((2S,4R)-4-((1-chloro-6-methoxyisoquinolin-7-yl)oxy)-2-methylpyrrolidin-1-yl)methyl)-4-fluorothiazol-2-yl)acetamide], under 1 nM.
With `CC(=O)Nc1nc(F)c(CN2C[C@H](Oc3nnc4cnccn34)C[C@@H]2C)s1` [Example 174, N-(5-(((2S,4R)-4-([1,2,4]triazolo[4,3-a]pyrazin-3-yloxy)-2-methylpyrrolidin-1-yl)methyl)-4-fluorothiazol-2-yl)acetamide] the figure was 2.6 nM; with `COc1cc2c(O[C@@H]3C[C@H](C)N(Cc4sc(NC(C)=O)nc4F)C3)ncnc2cc1F` [Example 125, N-(4-fluoro-5-(((2S,4R)-4-((7-fluoro-6-methoxyquinazolin-4-yl)oxy)-2-methylpyrrolidin-1-yl)methyl)thiazol-2-yl)acetamide], 1.8 nM; with `CC(=O)Nc1ncc(CN2C[C@H](Oc3nccc4ccc(C)cc34)C[C@@H]2C)s1` [Example 30, N-(5-(((2S,4R)-2-methyl-4-((7-methylisoquinolin-1-yl)oxy)pyrrolidin-1-yl)methyl)thiazol-2-yl)acetamide], 7.9 nM.
As for `CC(=O)Nc1nc(F)c(CN2C[C@H](Oc3ccc4ncnn4c3)C[C@@H]2C)s1` [Example 172, N-(5-(((2S,4R)-4-([1,2,4]triazolo[1,5-a]pyridin-6-yloxy)-2-methylpyrrolidin-1-yl)methyl)-4-fluorothiazol-2-yl)acetamide], the IC50 was under 1 nM.
In the case of `CC(=O)Nc1ncc(CN2C[C@H](Oc3ccnc4nn(C)cc34)C[C@@H]2C)s1` [Example 85, N-(5-(((2S,4R)-2-methyl-4-((2-methyl-2H-pyrazolo[3,4-b]pyridin-4-yl)oxy)pyrrolidin-1-yl)methyl)thiazol-2-yl)acetamide], the IC50 was under 1 nM.
In the case of `CC(=O)Nc1ncc(CN2C[C@H](Oc3cccn4ccnc34)C[C@@H]2C)s1` [Example 156, N-(5-(((2S,4R)-4-(imidazo[1,2-a]pyridin-8-yloxy)-2-methylpyrrolidin-1-yl)methyl)thiazol-2-yl)acetamide], the IC50 was under 1 nM.
As for `CC(=O)Nc1nc(F)c(CN2C[C@H](Oc3cnc4c(ccn4C)n3)C[C@@H]2C)s1` [Example 109, N-(4-fluoro-5-(((2S,4R)-2-methyl-4-((5-methyl-5H-pyrrolo[2,3-b]pyrazin-2-yl)oxy)pyrrolidin-1-yl)methyl)thiazol-2-yl)acetamide], the IC50 is under 1 nM.

One may read the IC50 as the midpoint of a concentration-inhibition curve.
